# Measured values taken from patent US10174065B2, “Antidiabetic enolic glucoside of phenylpyruvic acid” (ZADEC APS, priority 2010, dated 2019).
# Key:
# [1] = tested on: GLP1; conditions: blood of treated OB/IR rats; other studies in our laboratory (Louw et al. 2008); cited from earlier work
# [2] = tested on: 3T3-L1 adipocytes; assay: Glucose uptake in transformed 3T3-L1 adipocytes (colourometric glucose oxidase method); format: cell-based
# Procedure: 3T3-L1 cells were transformed in culture using modified DMEM differentiation media supplemented with insulin, dexametasone and isobutylmethylxanthine and cultured for 3 days. The transformed 3T3-L1 adipocytes were then cultured for a further 5 days in modified DMEM supplemented with 10% FCS before being exposed to insulin, metformin and compounds of the present invention (see Table 1). Glucose uptake over a three (3) hour period was determined after the 5 days of treatment using a colourometric glucose oxidase method (Biovision Inc, USA).
# The glucose concentration column represents the glucose concentration remaining in the media following three (3) hour exposure to the cells. The glucose uptake column represents glucose uptake from the media after a 3 hour exposure. SD represents the standard deviation. The percentage increases calculated from the relevant solvent vehicle and the P=values are reflected in the last two columns respectively.
# [3] = tested on: plasma glucose level; assay: Reduction in plasma glucose of a diabetic primate after a single dose (FIG. 1); format: in vivo, monkeys; conditions: diabetic primate M1081, baseline glucose 6.3 mmol/L, over 6 h after a single dose, 10.4 ug/kg BW
smiles,measurement,setting,value
"O=C(O)/C(=C/c1ccccc1)O[C@@H]1O[C@H](CO)[C@@H](O)[C@H](O)[C@H]1O [RX-1, 3-Phenyl-2-(3,4,5-trihydroxy-6-hydroxymethyl-tetrahydro-pyran-2-yloxy)-acrylic acid]",circulating GLP1 levels,[1],increased
same,glucose uptake over a 3 hour culture period,[2]; 3T3-L1 adipose cells,significantly increased
same,Glucose conc.,"[2]; glucose remaining in the media after 3 hour exposure to the cells, media containing 8 mM glucose",3.19 nM/ul
same,Glucose Uptake,"[2]; glucose uptake from the media after 3 hour exposure, media containing 8 mM glucose",2.86 nM/ul
same,% uptake,"[2]; relative to DMSO vehicle = 100.00, 3 hour glucose uptake",122.64%
same,reduction in plasma glucose level,[3],reduce the blood sugar of monkeys for prolonged periods of time
